Reference: patent US7052908B2, “Androgen receptor coactivators” (University of Rochester, priority 1998, dated 2006)
Where a chain is given by its changes, count along the chain named.

T1: mARe708k (Homo sapiens, UniProt P10275)
T1 construct: expressed in transfected cells; host or cells: DU145
T1 sequence (P10275 1-920 E710K): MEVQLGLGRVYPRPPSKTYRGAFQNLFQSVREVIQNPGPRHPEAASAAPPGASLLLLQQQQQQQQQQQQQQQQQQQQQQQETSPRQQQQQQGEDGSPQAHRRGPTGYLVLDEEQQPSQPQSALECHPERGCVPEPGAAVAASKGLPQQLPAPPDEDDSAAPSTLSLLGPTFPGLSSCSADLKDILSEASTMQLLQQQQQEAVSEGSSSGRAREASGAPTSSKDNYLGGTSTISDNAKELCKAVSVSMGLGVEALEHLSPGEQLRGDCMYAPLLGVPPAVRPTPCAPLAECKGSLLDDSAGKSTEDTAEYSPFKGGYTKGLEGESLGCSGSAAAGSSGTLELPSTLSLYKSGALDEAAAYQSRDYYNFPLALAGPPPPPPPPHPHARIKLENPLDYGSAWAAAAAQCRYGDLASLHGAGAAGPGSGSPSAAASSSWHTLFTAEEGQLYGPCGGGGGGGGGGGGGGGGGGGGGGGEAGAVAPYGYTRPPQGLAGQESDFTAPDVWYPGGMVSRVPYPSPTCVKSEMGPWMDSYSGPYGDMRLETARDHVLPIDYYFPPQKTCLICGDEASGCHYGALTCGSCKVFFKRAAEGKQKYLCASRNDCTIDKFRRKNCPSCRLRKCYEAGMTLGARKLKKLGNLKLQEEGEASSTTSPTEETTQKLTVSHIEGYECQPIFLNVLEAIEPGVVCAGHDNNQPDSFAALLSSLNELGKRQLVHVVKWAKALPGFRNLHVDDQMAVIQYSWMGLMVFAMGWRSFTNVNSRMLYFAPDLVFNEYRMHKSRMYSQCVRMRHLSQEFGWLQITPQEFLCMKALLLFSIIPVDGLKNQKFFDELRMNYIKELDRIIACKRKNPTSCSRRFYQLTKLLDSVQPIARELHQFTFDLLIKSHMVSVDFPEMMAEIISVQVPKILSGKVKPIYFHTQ

T2: mARe708k (Homo sapiens, UniProt P10275, E710K)
T2 construct: expressed in transfected cells; host or cells: DU145
T2 sequence (P10275 1-920 E710K): T1 sequence (P10275 1-920 E710K)

T3: wtAR (Homo sapiens, UniProt P10275)
T3 sequence (P10275 1-920): T1 sequence (P10275 1-920 E710K) with K710E

T4: AR (Homo sapiens, UniProt P10275)
T4 sequence (P10275 1-920): T1 sequence (P10275 1-920 E710K) with K710E

B1: C-terminal region of ARA54: a.a. 361–471 of ARA54, dominant negative inhibitor of AR-mediated transcription (protein)
chain: ANFNQSGNIADSSLSFTFTNSSNGPNLITTQTNSQALSQPIASSNVHDNFMNNEITASKIDDGNNSKPLSPGWTDQTAYNAFGITTGMFNTTTMDDVYNYLFDDEDTPPNPKKERNEYLQADEANKRLLDQRYGKRVIQKALEEMESKEWLEKNSKSCPCCGTPIEKLDGCNKMTCTGCMQYFCWICMGSLSRANPYKHFNDPGSPCFNRLFYAVDVDDDIWEDE

Columns and labels:
mARt877s = experiment: AR transactivation, transient transfection CAT reporter assay, mutant AR; assay type: cell-based, human
mARe708k [1] = target: T1, mARe708k; experiment: as above; assay type: cell-based; conditions: mARe708k cotransfected with Rb and/or ARA70; 10 nM E2 or 1 μM HF
mARe708k [2] = target: T2, mARe708k; experiment: as above; assay type: cell-based
AR [3] = experiment: Mammalian two-hybrid assay with CAT reporter in DU145 cells; assay type: cell-based, human; conditions: DU145; 10 nM DHT, or E2 or HF
Excerpt: The mammalian two-hybrid system employed was essentially the protocol of Clontech (California), with the following modifications. […] The hinge and LBD of wtAR were then inserted into pGAL0. Similarly, the VP16 activation domain was fused to pCMX under the control of a CMV promoter, and designated pCMX-VP16 (provided by Dr. R. M. Evan).

wtAR = target: T3, wtAR; experiment: AR transactivation, transient transfection with MMTV-CAT reporter in DU145 cells; conditions: for AR transcriptional activity induction: 10 nM E2 or 1 μM HF
AR [4] = target: T4, AR; experiment: AR-activated transcription (CAT) in transfected H1299 cells; assay type: cell-based; set-up: expressed in transfected cells; host or cells: DU145 (A1), NCI H1299 (A7), PC3 (A8); conditions: H1299 cells with endogenous ARA54
Excerpt: Since the C-terminal region of ARA54 (a.a. 361–471 of SEQ ID NO:2) isolated from prostate cDNA library has shown to be sufficient to interact with AR in yeast two-hybrid assays, we further investigated whether it could squelch the effect of ARA54 on AR-activated transcription in H1299 cells, which contain endogenous ARA54. The C-terminal region of ARA54 inhibits AR-mediated transcription by up to 70%; coexpression of exogenous full-length ARA54 reverses this squelching effect in a dose-dependent manner.
Human small lung carcinoma H1299 cell line, which has no endogenous AR protein, were transfected with AR and ARA24/Ran. Because ARA24/Ran is one of the most abundant and ubiquitously expressed proteins in various cells, both sense and antisense ARA24/Ran mammalian expression plasmids were tested.

| Molecule | response of Art877a transactivation to ligand (mARt877s; absence of ARA54, E2 10^-9-10^-7 M, HF 10^-7-10^-5 M) | response of LNCaP mAR to ligand compared to wtAR (mARt877s; compared to wtAR) | AR transcriptional activity induction (mARe708k [1]) | agonistic activity toward ARe708k (mARe708k [2]) | CAT activity with GAL0AR and VP16-ARA55 cotransfected (AR [3]) | response of wtAR transactivation to ligand (wtAR; E2 10^-9-10^-7 M or HF 10^-7-10^-5 M, in the presence or absence of ARA54) | AR transcriptional activity induction (wtAR; wild type AR cotransfected with Rb and ARA70) [fold] | AR transcriptional activity induction (wtAR; wild type AR cotransfected with Rb or ARA70) | response of wtAR transcriptional activity to ligand (wtAR; without ARA55, only at higher concentrations (10^-7 M for E2, 10^-5 M for HF)) | inhibition of AR-mediated transcription (AR [4]) |
| --- | --- | --- | --- | --- | --- | --- | --- | --- | --- | --- |
| CC(C)(O)C(=O)Nc1ccc([N+](=O)[O-])c(C(F)(F)F)c1 [HF, hydroxyflutamide, reference compound] | responded | responded much better | almost no induction | no agonistic activity | not induced | responded only marginally | 12 | 3–4 fold | responded marginally | – |
| B1 | – | – | – | – | – | – | – | – | – | up to 70% |
